Data from PMC11506018, “Targeting PARP-1 and DNA Damage Response Defects in Colorectal Cancer Chemotherapy with Established and Novel PARP Inhibitors” (Cancers, 2024).
pIC50: −log10 of the molar value. Like-named read-outs stand apart in the source and are kept apart here. Blank lines part the entries; values can stand above or below the molecule they belong to.

What was measured:
DLD-1 ATRs/s cells = assay: cell viability, resazurin reduction assay, DLD-1 ATRs/s; conditions: for pIC50: read-out: IC50-values DLD-1 ATRs/s
Method: (§1) To assess the cytotoxicity of newly developed PARP inhibitors, cells were cultivated in translucent 96-well plates overnight and treated with PARP inhibitors or cytostatic drugs for 72 h. […] Cell viability was assessed by the resazurin reduction assay (RRA) as described previously [41], and fluorescence was measured using a Spark® Multi-well reader (Tecan, Crailsheim, Germany). IC50 values were calculated using GraphPad Prism 9.0 software (GraphPad Software Inc., Boston, MA, USA). To this end, concentrations were transformed into the log scale, plotted against the cell viability and the curve was fitted by nonlinear regression with variable slope, providing the IC50 values.

[1] = tested on: human colonic epithelial cells (HCEC); assay: cell viability, resazurin reduction assay, HCEC; conditions: 72 h; for pIC50: read-out: IC50-values HCEC
Method: (§2) To assess the cytotoxicity of newly developed PARP inhibitors, cells were cultivated in translucent 96-well plates overnight and treated with PARP inhibitors or cytostatic drugs for 72 h. For the assessment of synergistic activity, cells were pretreated with the inhibitors for 2 h, before the inhibitor or cytostatic drug was added. Cell viability was assessed by the resazurin reduction assay (RRA) as described previously [41], and fluorescence was measured using a Spark® Multi-well reader (Tecan, Crailsheim, Germany). IC50 values were calculated using GraphPad Prism 9.0 software (GraphPad Software Inc., Boston, MA, USA). To this end, concentrations were transformed into the log scale, plotted against the cell viability and the curve was fitted by nonlinear regression with variable slope, providing the IC50 values.

HCT116 PARP-1+/+ cells = assay: cell viability, resazurin reduction assay, HCT116 PARP-1+/+; conditions: for pIC50: read-out: IC50-values HCT116 PARP1+/+
Method: as §2

DLD-1 WT cells = assay: cell viability, resazurin reduction assay, DLD-1 WT; conditions: for pIC50: read-out: IC50-values DLD-1 WT
Method: as §1

HCT116 BRCA2−/− cells = assay: cell viability, resazurin reduction assay, HCT116 BRCA2-/-; conditions: for pIC50: read-out: IC50-values HCT116 BRCA2−/−
Method: as §2

HCT116 WT cells = assay: cell viability, resazurin reduction assay, HCT116 WT; conditions: for pIC50: read-out: IC50-values HCT116 WT
Method: as §1

Caco-2 cells = assay: cell viability, resazurin reduction assay, Caco-2; conditions: for pIC50: Homo sapiens, read-out: IC50-values Caco-2
Method: as §2

HCT116 PARP-1−/− cells = assay: cell viability, resazurin reduction assay, HCT116 PARP-1-/-; conditions: for pIC50: read-out: IC50-values HCT116 PARP1−/−; for higher sensitivity of HCT116 PARP-1−/− than PARP-1+/+: from IC50 values of Table 1
Method: as §2

[2] = tested on: γH2AX formation in HCT116 BRCA2−/− cells; assay: γH2AX Western blot in HCT116 BRCA2-/- cells; conditions: IT 0.25 µM, 24 h, compared to WT
Method: (§3) Quantification of chromatin-trapped PARP-1 was performed as described elsewhere [42]. Briefly, HCT116 cells were harvested, and pellets were lysed in buffer containing 150 mM KCl, 2.5 mM MgCl2, 50 mM HEPES pH 7.8, 5 mM EDTA pH 8, 3 mM dithiothreitol (DTT), 10% glycerol, 0.5% Triton X-100, and freshly added protease inhibitor cocktail (Roche) for 15 min on ice. The chromatin-bound protein fraction was isolated by centrifugation at 4 °C for 15 min and 16.000× g. After transferring the soluble fraction, the chromatin-containing pellet was washed twice in lysis buffer and sonicated for 3 min. […] The proteins of interest were detected using a c300 chemiluminescence imager (Azure Biosystems, Dublin, CA, USA). […] The signal intensity (e.g., PARP-1 or γH2AX) of each lane was quantified and subsequently normalized to the respective loading control as indicated in the figure legends, which was analyzed in each experiment. […]

[3] = tested on: γH2AX formation in HCT116 WT cells; assay: γH2AX Western blot in HCT116 WT cells; conditions: X17613 50 µM or IT 0.25 µM, 24 h
Method: Quantification of chromatin-trapped PARP-1 was performed as described elsewhere [42]. Briefly, HCT116 cells were harvested, and pellets were lysed in buffer containing 150 mM KCl, 2.5 mM MgCl2, 50 mM HEPES pH 7.8, 5 mM EDTA pH 8, 3 mM dithiothreitol (DTT), 10% glycerol, 0.5% Triton X-100, and freshly added protease inhibitor cocktail (Roche) for 15 min on ice. The chromatin-bound protein fraction was isolated by centrifugation at 4 °C for 15 min and 16.000× g. After transferring the soluble fraction, the chromatin-containing pellet was washed twice in lysis buffer and sonicated for 3 min. The soluble and chromatin fractions were mixed with self-made 5× Laemmli buffer (200 mM TRIS pH 6.8, 40% glycerol, 8% SDS, 4 % ß-mercaptoethanol, 0.08% Bromphenol Blue) and incubated at 95 °C for 10 min. Samples were then separated by SDS-PAGE followed by Western blot analysis essentially as described previously [43]. For the analysis of γH2AX, cells were directly harvested in 1× Laemmli buffer, incubated at 95 °C for 5 min, and subjected to SDS-PAGE and subsequent Western blot analysis [44]. […] The proteins of interest were detected using a c300 chemiluminescence imager (Azure Biosystems, Dublin, CA, USA). Densitometric image analysis was conducted by applying the software AzureSpot version 2.0.062 (Azure Biosystems, USA). The signal intensity (e.g., PARP-1 or γH2AX) of each lane was quantified and subsequently normalized to the respective loading control as indicated in the figure legends, which was analyzed in each experiment. […]

PARP-1 [4] = molecular target: T1, PARP-1 (Homo sapiens, UniProt P09874); assay: chemiluminescence-based PARP-1 assay kit (recombinant enzyme); conditions: IC50 PARP-1 screening assay kit, recombinant PARP-1, 1 h RT, n = 2
Excerpt: Twelve compounds were screened regarding their ability to inhibit PARP-1 enzyme activity in vitro. Therefore, we utilized a chemiluminescence-based PARP-1 assay kit (BPS Bioscience, San Diego, CA, USA) and performed two independent experiments according to the manufacturer’s instructions. Briefly, non-transparent 96-well plates were coated with histones overnight. […] After adding activated DNA and biotinylated NAD^+, the ADP-ribosylation reaction was initiated by the addition of PARP-1 enzyme and incubated at RT for 1 h. Quantification of biotinylated PAR was conducted by using Streptavidin–HRP and subsequent ECL-based detection of chemiluminescence, applying a Spark® multiplate reader (Tecan, Crailsheim, Germany).

[5] = tested on: H2O2-induced PAR formation (PARP-1 activity) in HCT116 cells; assay: PAR immunofluorescence: H2O2-induced PAR formation in HCT116 cells; type: cell-based, human; conditions: for pIC50: Homo sapiens, HCT-116, 2 h pretreatment, 1 mM H2O2 5 min, unit inferred, read-out: IC50 PAR formation in HCT116 cells (Figure A3A); for PAR signal: concentration of 100 nM; for PAR signal / PAR formation: H2O2-induced; for PAR formation: 10 µM / highest concentration
Method: Cells lines were re-authenticated by p53, PARP-1, ATR, and BRCA2 immunoblotting, by their characteristic differential response to genotoxic agents and their typical cell morphology. HCT116, HCT116 BRCA2^−/−, DLD-1 ATR^+/+ and DLD-1 ATR^s/s cells were maintained in DMEM, whereas HCT116 PARP-1^+/+ and HCT116 PARP-1^−/− cells were maintained in RPMI1640 containing 10% FCS and 1% penicillin/streptomycin in a humidified atmosphere at 37 °C and 5% CO2. Caco-2 cells were cultured in MEM with 10% FCS, 1% penicillin/streptomycin, and nonessential amino acids. […] The media and supplements were obtained from PAN-Biotech (Aidenbach, Germany) and Thermo Fisher Scientific (Darmstadt, Germany). Cell culture was frequently tested for contamination with mycoplasma by PCR using the Venor® GeM Classic kit (Minerva Biolabs, Berlin, Germany) and immunofluorescence microscopy with nuclear staining. […] Cells were exposed for 1 h for the quantification of PARP-1 trapping or 2 h for assessing the inhibitory potential by confocal fluorescence microscopy. […] If the PARPi treatment was conducted in combination with cytostatic drugs for 24 h (γH2AX Western blot analysis) or 72 h (cytotoxicity testing), the PARPi was added 2 h prior.
The activity of potential PARP inhibitors was tested in a cell model using immunofluorescence-based detection of PAR essentially as reported previously. HCT116 cells were seeded in Ibidi 12-well chamber slides and cultivated until they reached 70% confluence. Induction of PARylation was achieved by adding 1 mM H2O2 in PBS/1 mM MgCl2 for 5 min at 37 °C. Cells were washed with PBS/1 mM MgCl2 and fixed by adding 4% PFA at RT. After 20 min, cells were washed with PBS/100 mM glycine for 1 min and permeabilized with PBS/0.3% Triton X-100 for 3 min. Blocking of the cells was conducted by adding PBS/0.05% Tween containing 5% powdered milk for 1 h at RT. […] Cells were washed and an Alexa488-coupled secondary antibody was added for 1 h at RT. The slides were mounted with VectaShield containing DAPI and analyzed by confocal microscopy using a Zeiss Axio Observer 7 microscope (Oberkochen, Germany) equipped with a 63× oil objective (Plan-Apochromat 63×/1.40 DIC M27) and a LSM900 confocal laser scanner (Zeiss, Oberkochen, Germany). Images were analyzed using Zeiss Zen software version 3.4 and ImageJ v1.53t (NIH, Bethesda, MD, USA). Briefly, nuclei were identified based on the DAPI signal and marked as regions of interest (ROI). Subsequently, the mean PAR signal in the identified ROI was quantified in each image and exported for further analysis. For the individual experiments, the mean PAR intensity was averaged for each treatment group and the control was set to 100%. Only images with a minimum of 4 cells were included in the analysis and at least 5 images were assessed per treatment group. The experiments were conducted in at least 3 biological replicates. To derive IC50 concentrations, relative PAR levels of the experiments were transferred to GraphPad Prism 9.0 Software (GraphPad Software Inc., Boston, MA, USA) for a nonlinear regression analysis applying a three-parameter model.

PARP-1 [6] = molecular target: T1, PARP-1; assay: chromatin retention assay (PARP-1 trapping) in HCT116 cells; conditions: HCT116, MMS 1 mM 1 h with inhibitor
Method: as §3

PARP-1 [7] = molecular target: T1, PARP-1; assay: chromatin retention assay (PARP-1 trapping) in Caco-2 cells; conditions: Caco-2, MMS 1 mM 1 h with inhibitor
Method: as §3

T1 sequence (P09874 whole entry): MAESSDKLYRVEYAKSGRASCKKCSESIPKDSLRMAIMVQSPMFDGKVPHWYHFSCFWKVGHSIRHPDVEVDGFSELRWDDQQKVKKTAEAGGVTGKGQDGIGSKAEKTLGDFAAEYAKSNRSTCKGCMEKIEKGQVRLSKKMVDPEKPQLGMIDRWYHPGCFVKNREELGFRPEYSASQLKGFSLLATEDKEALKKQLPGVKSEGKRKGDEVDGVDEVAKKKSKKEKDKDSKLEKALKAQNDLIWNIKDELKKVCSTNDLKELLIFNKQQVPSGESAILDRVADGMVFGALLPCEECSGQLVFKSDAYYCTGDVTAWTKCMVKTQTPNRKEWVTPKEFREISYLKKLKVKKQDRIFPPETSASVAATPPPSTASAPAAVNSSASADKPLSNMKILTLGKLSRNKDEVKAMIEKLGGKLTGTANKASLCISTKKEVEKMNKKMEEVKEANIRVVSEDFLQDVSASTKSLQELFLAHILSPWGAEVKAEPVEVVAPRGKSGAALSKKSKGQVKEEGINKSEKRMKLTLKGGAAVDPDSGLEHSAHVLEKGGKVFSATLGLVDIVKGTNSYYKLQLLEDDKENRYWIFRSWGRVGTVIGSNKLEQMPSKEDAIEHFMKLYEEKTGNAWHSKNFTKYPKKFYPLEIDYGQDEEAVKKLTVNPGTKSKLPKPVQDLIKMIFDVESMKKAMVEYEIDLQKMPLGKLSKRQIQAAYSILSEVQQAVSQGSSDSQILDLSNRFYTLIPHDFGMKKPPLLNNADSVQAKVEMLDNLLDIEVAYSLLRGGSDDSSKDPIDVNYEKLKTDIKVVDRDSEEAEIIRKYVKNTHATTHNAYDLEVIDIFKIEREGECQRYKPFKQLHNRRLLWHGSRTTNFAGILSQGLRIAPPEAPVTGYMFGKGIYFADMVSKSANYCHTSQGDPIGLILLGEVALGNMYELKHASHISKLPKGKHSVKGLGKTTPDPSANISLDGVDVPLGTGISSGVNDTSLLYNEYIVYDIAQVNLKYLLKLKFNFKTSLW

pIC50 (DLD-1 ATRs/s cells; Homo sapiens, DLD-1, 72 h): 6.66
pIC50 (HCT116 PARP-1+/+ cells; Homo sapiens, HCT-116, 72 h): 6.62
pIC50 (DLD-1 WT cells; Homo sapiens, DLD-1, 72 h): 6.46
pIC50 (HCT116 BRCA2−/− cells; Homo sapiens, HCT-116, 72 h): 6.47
pIC50 (HCT116 WT cells; Homo sapiens, HCT-116, 72 h): 6.30
IC50-values Caco-2 (Caco-2 cells; 72 h, RRA): -
pIC50 (HCT116 PARP-1−/− cells; Homo sapiens, HCT-116, 72 h): 6.82
Structure (SMILES): O=c1[nH]cc(F)c(=O)[nH]1 [5-FU, 5-fluorouracil]
pIC50 ([1]; Homo sapiens, HCEC): 4.58
higher sensitivity of HCT116 PARP-1−/− than PARP-1+/+ (HCT116 PARP-1−/− cells): less affected

pIC50 (DLD-1 ATRs/s cells; Homo sapiens, DLD-1, 72 h): 5.52
pIC50 (HCT116 PARP-1+/+ cells; Homo sapiens, HCT-116, 72 h): 6.03
pIC50 (DLD-1 WT cells; Homo sapiens, DLD-1, 72 h): 5.38
pIC50 (HCT116 BRCA2−/− cells; Homo sapiens, HCT-116, 72 h): 6.80
pIC50 (HCT116 WT cells; Homo sapiens, HCT-116, 72 h): 5.89
pIC50 (Caco-2 cells; Caco-2, 72 h): 4.18
pIC50 (HCT116 PARP-1−/− cells; Homo sapiens, HCT-116, 72 h): 6.46
Structure (SMILES): CCc1c2c(nc3ccc(OC(=O)N4CCC(N5CCCCC5)CC4)cc13)-c1cc3c(c(=O)n1C2)COC(=O)[C@]3(O)CC [IT, irinotecan]
pIC50 ([1]; Homo sapiens, HCEC): 5.53
γH2AX, mono-treatment [2]: slightly higher γH2AX levels
γH2AX, mono-treatment [3]: significant induction of γH2AX
higher sensitivity of HCT116 PARP-1−/− than PARP-1+/+ (HCT116 PARP-1−/− cells): 2.5–3 fold

Structure (SMILES): O=C1[O][Pt]2([NH][C@@H]3CCCC[C@H]3[NH]2)[O]C1=O [OXA, oxaliplatin]
pIC50 (DLD-1 ATRs/s cells; 72 h, RRA): 5.04
pIC50 ([1]; RRA): 4.39
pIC50 (HCT116 PARP-1+/+ cells; 72 h, RRA): 6.15
pIC50 (DLD-1 WT cells; 72 h, RRA): 5.06
pIC50 (HCT116 BRCA2−/− cells; 72 h, RRA): 6.60
pIC50 (HCT116 WT cells; 72 h, RRA): 5.92
higher sensitivity of HCT116 PARP-1−/− than PARP-1+/+ (HCT116 PARP-1−/− cells): 2.5–3 fold
pIC50 (HCT116 PARP-1−/− cells; 72 h, RRA): 6.55

pIC50 (PARP-1 [4]): 5.04
Structure (SMILES): COC(=O)C1CC(=O)c2cccc3[nH]c(C)c1c23 (centres unmarked) [X17616]

pIC50 (DLD-1 ATRs/s cells; Homo sapiens, DLD-1, 72 h): < 4.30
pIC50 [5]: 8.27
pIC50 (HCT116 PARP-1+/+ cells; Homo sapiens, HCT-116, 72 h): < 4.30
pIC50 (DLD-1 WT cells; Homo sapiens, DLD-1, 72 h): < 4.30
PARP-1 trapping (PARP-1 [7]): no effects were detected
pIC50 (HCT116 BRCA2−/− cells; Homo sapiens, HCT-116, 72 h): < 4.30
pIC50 (HCT116 WT cells; Homo sapiens, HCT-116, 72 h): < 4.30
pIC50 (Caco-2 cells; Caco-2, 72 h): < 4.30
pIC50 (HCT116 PARP-1−/− cells; Homo sapiens, HCT-116, 72 h): < 4.30
pIC50 (PARP-1 [4]): 5.55
Structure (SMILES): CNC(=O)C1CC(=O)c2cccc3[nH]c(C)c1c23 (centres unmarked) [X17618, N,2-dimethyl-5-oxo-1,3,4,5-tetrahydrobenzo[cd]indole-3-carboxamide]
cell viability, monotreatment (DLD-1 ATRs/s cells; DLD-1 ATRs/s, 72 h): no effects
pIC50 ([1]; Homo sapiens, HCEC): < 4.30
cell viability, monotreatment ([1]; nonmalignant HCEC, up to 50 µM): no effect on HCEC
PAR signal [5]: significant decrease in the PAR signal
chromatin-bound PARP-1 (PARP-1 trapping) (PARP-1 [6]): No enrichment of PARP-1 in the chromatin fraction
cell viability, monotreatment (HCT116 PARP-1+/+ cells; HCT116 PARP-1+/+, 72 h, up to 50 µM): Neither X17613 nor X17618 decreased cell viability
cell viability in combination with cytostatics (HCT116 PARP-1+/+ cells; HCT116 PARP-1+/+, IT 0.5 µM, 5-FU 0.25 µM, OXA 0.5 µM, 72 h, PARPi added 2 h prior): did not affect the cytotoxicity of the anticancer drugs
cell viability, monotreatment (DLD-1 WT cells; DLD-1 WT, 72 h): no effects
decrease of viability (HCT116 BRCA2−/− cells; HCT116 BRCA2−/−, highest test concentration of 50 µM, 72 h): about 25%
cell viability, monotreatment (HCT116 WT cells; HCT116 WT, 72 h, up to 50 µM): no impact
cell viability, monotreatment (Caco-2 cells; Caco-2, 72 h, up to 50 µM): no impact on cell viability at all
sensitization towards the anticancer drugs (Caco-2 cells; Caco-2, IT 10 µM, 5-FU 5 µM, OXA 1 µM): no sensitization towards the anticancer drugs
cell viability, monotreatment (HCT116 PARP-1−/− cells; HCT116 PARP-1−/−, 72 h, up to 50 µM): Neither X17613 nor X17618 decreased cell viability
cell viability in combination with cytostatics (HCT116 PARP-1−/− cells; HCT116 PARP-1−/−, IT 0.5 µM, 5-FU 0.25 µM, OXA 0.5 µM, 72 h, PARPi added 2 h prior): did not affect the cytotoxicity of the anticancer drugs

pIC50 (PARP-1 [4]): 6.32
Structure (SMILES): Cc1[nH]c2cccc3c2c1C(C(=O)NCc1ccco1)CC3=O (centres unmarked) [X17620, N-(furan-2-ylmethyl)-2-methyl-5-oxo-1,3,4,5-tetrahydrobenzo[cd]indole-3-carboxamide]
PAR formation [5]: no effect on PAR formation

pIC50 [5]: 7.78
pIC50 (PARP-1 [4]): 5.79
Structure (SMILES): Cc1[nH]c2cccc3c2c1C(C(=O)N1CCOCC1)CC3=O (centres unmarked) [X17621, 2-methyl-3-(morpholine-4-carbonyl)-3,4-dihydrobenzo[cd]indol-5(1H)-one]
PAR formation [5]: did not entirely inhibit PAR formation
PAR signal [5]: significant decrease in the PAR signal
